Measured values reported in PubChem BioAssay AID2060895 (Molecular Pharmacology Branch, DTP, NCI, 2025).

Tested on: PDC 899932-113-R3-J6 complex spheroid viability
Assay: Anticancer human tumor 899932-113-R3-J6-PDC patient-derived melanoma cell line growth inhibition [RAS]
Settings: for IC50: curve of first compound; for viability, T/C: stronger effect = lower value
Excerpt: RAS pathway inhibitors in Combinations in Complex Spheroids
A high-throughput screen of multi-cell type tumor spheroids was designed to identify active combinations of RAS pathway inhibitors and targeted small molecules. Complex spheroids include a stromal component modeled by human endothelial cells (HUVEC) and fibroblasts modeled by human mesenchymal stem cells (MSCs). The concentration ranges selected for each drug and investigational agent were based upon clinically achievable concentrations if the clinical Cmax of the agent was known.
Compounds. The drugs and investigational agents: abemaciclib (NSC768073), cobimetinib (NSC768068), divarasib (GDC6063, NSC841802), docetaxel (NSC628503), GDC-1971 (RLY-1971, NSC841576), gemcitabine (NSC613327), inavolisib (NSC800729), ipatasertib (NSC767898), KB-0742 (NSC834161), MRTX-1133 (NSC836407), osimertinib (NSC779217), RMC-4630 (NSC839698), RMC-6236 (NSC851965), RMC-6291 (NSC852671), Ro-3306 (NSC812927), sapanisertib (NSC764658), SN-38 (NSC673596), staurosporine (NSC755774), SY5609 (NSC837396), and tovorafenib (DAY101, NSC766906), were obtained from the National Cancer Institute (NCI) Developmental Therapeutics Program Chemical Repository. The FDA-approved anticancer drug set is available from the NCI Developmental Therapeutics Program. […] The stock solutions were prepared in dimethyl sulfoxide (DMSO, Sigma-Aldrich, St. Louis, MO, cat. D2650) at 800-fold the tested concentration and stored at -70 degrees C prior to their use. All drugs and investigational agents were tested over a range starting from a high concentration at or near the clinical Cmax and decreasing in half-log increments. If the clinical Cmax for an agent had not been determined, the highest concentration tested was 10 microM.
Cell Culture. All cells were maintained in an incubator at 37 degrees C and 5% CO2 with 95% humidity. The PDC lines were cultured according to standard operating procedures established by the NCI PDMR. All PDCs were thawed and cultured in Matrigel-coated flasks prepared with a working solution of 1X Ham's F-12 nutrient mix, without supplementation (Invitrogen, Waltham, MA, cat. 11765054), 100 U/mL penicillin-streptomycin (Invitrogen, cat. 15140122), and 2.5% Matrigel (Corning Inc., Corning, NY, cat. 354248) for the first three passages. The 362531-283-R-J2-PDC and 782815-120-R-J1-PDC lines were cultured in 6C/Colon 1B media, which includes advanced DMEM/F-12 (Thermo Fisher Scientific, cat. 12634028), 10 mM HEPES (Thermo Fisher Scientific, cat. 15630080), 1X GlutaMAX supplement (Thermo Fisher Scientific, cat. 35050061), 0.1 mg/mL primocin (InvivoGen, San Diego, CA, cat. ant-pm-2), 10% defined fetal bovine serum, heat inactivated (HyClone Laboratories Inc., Logan, UT, cat. SH30070.03HI), 50% L-WRN conditioned media (ATCC, cat. CRL-3276), 1.25 mM N-Acetyl-L-cysteine (Sigma-Aldrich, cat. A9165), 10 mM nicotinamide (Sigma-Aldrich, cat. N0636), 1X B-27 supplement (Thermo Fisher Scientific, cat. 17504044), 1X N-2 supplement (Thermo Fisher Scientific, cat. 17502048), 50 ng/mL human EGF (Thermo Fisher Scientific, cat. PHG0311), and 10 microM Y-27632 dihydrochloride (Tocris Bioscience, cat. 1254). The K12877-001-R-J1-PDC line was cultured in 6I media, which includes all 6C/Colon 1B media plus 10 ng/mL human FGF-10 (PeproTech, cat. 100-26), 1 ng/mL human FGF-2 (PeproTech, cat. 100-18B), 1 µM prostaglandin E2 (Tocris Bioscience, cat. 2296), […] hydrocortisone (Sigma-Aldrich, cat. H4001), and […] bovine insulin (Sigma-Aldrich, cat. I6634). The K86415-001-R-J1-PDC line was cultured in 6D media, which includes all 6C/Colon 1B media components minus the L-WRN conditioned media. The 485176-168-R4-J1-PDC was cultured in PANC media, which includes all 6C/Colon 1B media plus 100 ng/mL human FGF-10 (PeproTech, cat. 100-26), 500 nM SB-431542 (Selleckchem, cat. S1067), and 10 nM gastrin (Tocris Bioscience, cat. 3006). […]
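For viability, T/C in this document: spheroids exposed to agents for seven days before readout; 100% = DMSO vehicle control wells.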

SMILES: CC1(O)CCCC1n1c(=O)c(C(F)F)cc2cnc(NC3CCN(S(C)(=O)=O)CC3)nc21 (configuration not stated) + CCn1c(-c2cc(N3CCN(C)CC3)cnc2C(C)OC)c2c3cc(ccc31)-c1csc(n1)CC(NC(=O)C1CC1C)C(=O)N1CCCC(N1)C(=O)OCC(C)(C)C2
- IC50 (second compound 0.000949 µM): 239 nM
- IC50 (second compound 0.003 µM): < 31.6 nM
- IC50 (second compound 0.00949 µM): < 31.6 nM
- IC50 (second compound 0.03 µM): < 31.6 nM
- IC50 (second compound 0.0949 µM): < 31.6 nM
- IC50 (second compound 0.3 µM): < 31.6 nM
- viability, T/C (second compound 0.000949 µM, first compound 0.0316 µM): 77.9%
- viability, T/C (second compound 0.000949 µM, first compound 0.1 µM): 54.2%
- viability, T/C (second compound 0.000949 µM, first compound 0.316 µM): 49.5%
- viability, T/C (second compound 0.000949 µM, first compound 1 µM): 39.3%
- viability, T/C (second compound 0.000949 µM, first compound 3.16 µM): 37.1%
- viability, T/C (second compound 0.000949 µM, first compound 10 µM): 27.2%
- viability, T/C (second compound 0.003 µM, first compound 0.0316 µM): 41.5%
- viability, T/C (second compound 0.003 µM, first compound 0.1 µM): 33%
- viability, T/C (second compound 0.003 µM, first compound 0.316 µM): 27.5%
- viability, T/C (second compound 0.003 µM, first compound 1 µM): 25.6%
- viability, T/C (second compound 0.003 µM, first compound 3.16 µM): 26.6%
- viability, T/C (second compound 0.003 µM, first compound 10 µM): 14.1%
- viability, T/C (second compound 0.00949 µM, first compound 0.0316 µM): 4.88%
- viability, T/C (second compound 0.00949 µM, first compound 0.1 µM): 6.46%
- viability, T/C (second compound 0.00949 µM, first compound 0.316 µM): 7.99%
- viability, T/C (second compound 0.00949 µM, first compound 1 µM): 9.02%
- viability, T/C (second compound 0.00949 µM, first compound 3.16 µM): 8.75%
- viability, T/C (second compound 0.00949 µM, first compound 10 µM): 4.7%
- viability, T/C (second compound 0.03 µM, first compound 0.0316 µM): 2.99%
- viability, T/C (second compound 0.03 µM, first compound 0.1 µM): 2.96%
- viability, T/C (second compound 0.03 µM, first compound 0.316 µM): 3.21%
- viability, T/C (second compound 0.03 µM, first compound 1 µM): 3.04%
- viability, T/C (second compound 0.03 µM, first compound 3.16 µM): 3.2%
- viability, T/C (second compound 0.03 µM, first compound 10 µM): 1.24%
- viability, T/C (second compound 0.0949 µM, first compound 0.0316 µM): 2.41%
- viability, T/C (second compound 0.0949 µM, first compound 0.1 µM): 2.7%
- viability, T/C (second compound 0.0949 µM, first compound 0.316 µM): 2.57%
- viability, T/C (second compound 0.0949 µM, first compound 1 µM): 3.02%
- viability, T/C (second compound 0.0949 µM, first compound 3.16 µM): 2.41%
- viability, T/C (second compound 0.0949 µM, first compound 10 µM): 0.82%
- viability, T/C (second compound 0.3 µM, first compound 0.0316 µM): 1.98%
- viability, T/C (second compound 0.3 µM, first compound 0.1 µM): 2.13%
- viability, T/C (second compound 0.3 µM, first compound 0.316 µM): 2.07%
- viability, T/C (second compound 0.3 µM, first compound 1 µM): 1.97%
- viability, T/C (second compound 0.3 µM, first compound 3.16 µM): 2.39%
- viability, T/C (second compound 0.3 µM, first compound 10 µM): 0.63%
